For data set [1], the system named is Canis familiaris. Kind of data set: Tested for effective dose required to produce cardiotonic activity after intravenous administration in anesthetized dog model. The data set is classed as functional. The note with it: Canis lupus familiaris.
A short description of data set [2]: Solubility in 1 M HCl. In kind it is physicochemical. The note with it: read-out: S.
Data set [3] deals with Canis familiaris. The experiment in a line: Maximum increase in cardiac force at 75 ug/Kg was observed in an anesthetized dog model(iv). In kind it is functional, Canis lupus familiaris.
The test system of data set [4] is Canis familiaris. The experiment in a line: The mean arterial blood pressure drop after administration was determined. The data set is classed as functional, Canis lupus familiaris.
The species entered for data set [5] is Canis familiaris. Kind of data set: The differential (dp/dt) maximal rise in blood pressure with respect to time was evaluated. The data set is classed as functional, Canis lupus familiaris.
For data set [6], the system named is Canis familiaris. Kind of data set: The high peak activity was evaluated at a dose of 35 ug/kg intravenously in dog. The data set is classed as functional, Canis lupus familiaris.
The nature of data set [7]: Solubility in 1 M HCl; compound is insoluble. The data set is classed as physicochemical. The note with it: buffer.

Values after ≈ are worked out from the molar mass of the structure shown.

Results on 2 molecules are retold here after ChEMBL document CHEMBL1151024, “Synthesis and cardiotonic activity of 2,9-dihydro-6-(5-methyl-3-oxo-2,3,4,5-tetrahydropyridazin-6-yl)pyrazolo[4,3-b][1,4]benzoxazine” (Bioorg Med Chem Lett, 1993).

The term ED50 denotes the dose that gives a 50% effect, or the effect in half of the subjects. Low readings indicate an effect at a small dose, high ones a need for a large dose.

In the data set on Canis familiaris [1], `CC1CC(=O)NN=C1c1ccc2c(c1)Oc1cn[nH]c1N2` (centres undefined) returned a 50% effective dose (ED50) of 0.015 mg/kg. The solubility in data set [2] was determined as 300 µg/mL (≈ 1060 µM). In the data set on Canis familiaris [3], this molecule came in with an Increase of 256%. In addition, in the data set on Canis familiaris [4], the “Decrease in blood pressure” value was determined as 21%. Also, the Change in the data set filed under Canis familiaris [5] was found to be 119%.
`CC1CC(=O)NN=C1c1ccc2c(c1)OCC(=O)N2` (centres undefined) [BEMORADAN] gave an Activity with Canis familiaris [6] of 200. Moreover, in data set [7], the S entry is “Insoluble”. Besides, in the data set with Canis familiaris [1], the ED50 came to 0.0054 mg/kg. This molecule displayed an Increase in the data set with Canis familiaris [3] of 127%.
